We go through six compounds from ChEMBL document CHEMBL1129595, “Potent 6-desfluoro-8-methylquinolones as new lead compounds in antibacterial chemotherapy” (J Med Chem, 1996).

Assay [1] has as its system Enterococcus faecalis. Kind of assay: In vitro antibacterial activity against Enterococcus faecalis LEP Br. The format is functional.
The test system of assay [2] is Enterococcus faecalis. The assay can be described thus: In vitro antibacterial activity against Enterococcus faecalis UCMC 39690. The format is functional.
Another assay has as its system Enterobacter cloacae. The assay can be described thus: In vitro antibacterial activity against Enterobacter cloacae OMNFI 174. The assay is classed as functional.
The test system of assay [3] is Escherichia coli. Kind of assay: In vitro antibacterial activity against Escherichia coli 120. The assay is classed as functional.
The test system of assay [4] is Escherichia coli. Kind of assay: In vitro antibacterial activity against Escherichia coli ATCC 25922. The assay is classed as functional.
The target in a further assay is DNA gyrase (Escherichia coli, UniProt P0AES4+P0AES6). Kind of assay: Inhibitory effect against Escherichia coli Gyrase in Supercoiling assay. The format is protein-complex assay.
The subject of a further assay is Haemophilus influenzae. The assay can be described thus: In vitro antibacterial activity against Haemophilus influenzae. The format is functional.
A further assay concerns Klebsiella pneumoniae. The assay can be described thus: In vitro antibacterial activity against Klebsiella pneumoniae ATCC 10031. The assay is classed as functional.
A further assay deals with Proteus mirabilis. Kind of assay: In vitro antibacterial activity against Proteus mirabilis OBT 505. The format is functional.
The test system of assay [5] is Pseudomonas aeruginosa. Kind of assay: In vitro antibacterial activity against Pseudomonas aeruginosa OBT 307. The format is functional.
The next assay has as its system Proteus vulgaris. Kind of assay: In vitro antibacterial activity against Proteus vulgaris CNUR 6. The assay is classed as functional.
The subject of assay [6] is Staphylococcus aureus. The assay can be described thus: In vitro antibacterial activity against Staphylococcus aureus ATCC 29213. The format is functional.
Assay [7] concerns Staphylococcus aureus. The assay can be described thus: In vitro antibacterial activity against Staphylococcus aureus M-R POMM 6214. The format is functional.
For assay [8], the system named is Staphylococcus aureus. Kind of assay: In vitro antibacterial activity against Staphylococcus aureus MPR 5. The format is functional.
The subject of assay [9] is Staphylococcus aureus. Kind of assay: In vitro antibacterial activity against Staphylococcus aureus CPX-R OBT 687. The assay is classed as functional.
The test system of a further assay is Streptococcus pneumoniae. Kind of assay: In vitro antibacterial activity against Streptococcus pneumoniae I 0.43. The assay is classed as functional.
The next assay deals with Streptococcus pyogenes. The assay can be described thus: In vitro antibacterial activity against Streptococcus pyogenes OMNFI BI. The format is functional.
A short description of assay [10]: Mean MIC against gram positive. The assay is classed as functional.
Assay [11] in a line: Mean MIC against gram negative. The format is functional.
The subject of assay [12] is Escherichia coli. Kind of assay: In vitro antibacterial activity against Escherichia coliCPX-R OBT 431. The format is functional.
The subject of assay [13] is Pseudomonas aeruginosa. Kind of assay: In vitro antibacterial activity against Pseudomonas aeruginosa […] 9027. The format is functional.

Values after ≈ are worked out from the molar mass of the structure shown.

As a reminder, the IC50 is the concentration that gives 50% inhibition. A high value points to weaker potency. On to `Cc1c(N2CCN(C)CC2)c(F)cc2c(=O)c(C(=O)O)cn(C3CC3)c12`, for which the MIC in the assay with Enterococcus faecalis [1] is 0.25 µg/mL (≈ 0.696 µM); with Enterococcus faecalis [2], 0.271 µg/mL (≈ 0.754 µM); with Enterobacter cloacae, 0.125 µg/mL (≈ 0.348 µM); against Escherichia coli [3], below 0.016 µg/mL; with Escherichia coli [4] it was below 0.016 µg/mL; with Haemophilus influenzae, below 0.016 µg/mL. Moreover, the MIC against Klebsiella pneumoniae was below 0.016 µg/mL; against Proteus mirabilis, 0.5 µg/mL (≈ 1.39 µM); in the assay on Pseudomonas aeruginosa [5] it was 0.2 µg/mL (≈ 0.556 µM); against Proteus vulgaris, 0.5 µg/mL (≈ 1.39 µM); against Staphylococcus aureus [6], 0.125 µg/mL (≈ 0.348 µM); against Staphylococcus aureus [7] it was 0.125 µg/mL (≈ 0.348 µM). Further, the MIC against Staphylococcus aureus [8] came out at 0.06 µg/mL (≈ 0.167 µM); in the assay with Staphylococcus aureus [9] it was 2 µg/mL (≈ 5.56 µM); in the assay on Streptococcus pneumoniae, 1 µg/mL (≈ 2.78 µM); in the assay with Streptococcus pyogenes, 0.25 µg/mL (≈ 0.696 µM); in [10], 0.271 µg/mL (≈ 0.754 µM); in [11], 0.155 µg/mL (≈ 0.431 µM). The values for the MIC against Escherichia coli [12] and with Pseudomonas aeruginosa [13] were 4 µg/mL (≈ 11.1 µM) and 0.5 µg/mL (≈ 1.39 µM), respectively. On DNA gyrase, this compound gave an IC50 of 16.4 µM.
For `Cc1c(N2CCC(N)C2)ccc2c(=O)c(C(=O)O)cn(C3CC3)c12` (stereo unspecified), the MIC against Enterococcus faecalis [1] is 1 µg/mL (≈ 3.05 µM); against Enterococcus faecalis [2], 0.5 µg/mL (≈ 1.53 µM); in the assay on Enterobacter cloacae, below 0.016 µg/mL; with Escherichia coli [3], below 0.016 µg/mL; against Escherichia coli [4] it was below 0.016 µg/mL; against Haemophilus influenzae, below 0.016 µg/mL. For the same compound, the MIC with Klebsiella pneumoniae is below 0.016 µg/mL; with Proteus mirabilis, 0.5 µg/mL (≈ 1.53 µM); with Pseudomonas aeruginosa [5], 1 µg/mL (≈ 3.05 µM); in the assay on Proteus vulgaris it was 1 µg/mL (≈ 3.05 µM); against Staphylococcus aureus [6], 0.125 µg/mL (≈ 0.382 µM); in the assay on Staphylococcus aureus [7], 0.25 µg/mL (≈ 0.764 µM). Also, the MIC amounted to 0.125 µg/mL (≈ 0.382 µM) against Staphylococcus aureus [8]; 4 µg/mL (≈ 12.2 µM) in the assay with Staphylococcus aureus [9]; 0.06 µg/mL (≈ 0.183 µM) in the assay on Streptococcus pneumoniae; 1 µg/mL (≈ 3.05 µM) against Streptococcus pyogenes; 16 µg/mL (≈ 48.9 µM) against Escherichia coli [12]; 0.125 µg/mL (≈ 0.382 µM) with Pseudomonas aeruginosa [13].
For the compound `Cc1c(N2CC(C)CC(C)C2)ccc2c(=O)c(C(=O)O)cn(C3CC3)c12` (stereo unspecified), the MIC is 1 µg/mL (≈ 2.82 µM) in the assay with Enterococcus faecalis [1]; 1 µg/mL (≈ 2.82 µM) against Enterococcus faecalis [2]; 4 µg/mL (≈ 11.3 µM) in the assay with Enterobacter cloacae; 1 µg/mL (≈ 2.82 µM) against Escherichia coli [3]; 1 µg/mL (≈ 2.82 µM) against Escherichia coli [4]; 0.25 µg/mL (≈ 0.705 µM) against Haemophilus influenzae. Also, the MIC in the assay with Klebsiella pneumoniae was 0.5 µg/mL (≈ 1.41 µM); against Proteus mirabilis it was 16 µg/mL (≈ 45.1 µM); against Pseudomonas aeruginosa [5], above 16 µg/mL; with Proteus vulgaris, above 16 µg/mL; in the assay with Staphylococcus aureus [6], below 0.016 µg/mL; against Staphylococcus aureus [7], below 0.016 µg/mL. Moreover, the MIC against Staphylococcus aureus [8] was below 0.016 µg/mL; in the assay on Staphylococcus aureus [9], 4 µg/mL (≈ 11.3 µM); against Streptococcus pneumoniae, 0.5 µg/mL (≈ 1.41 µM); in the assay with Streptococcus pyogenes, 2 µg/mL (≈ 5.64 µM); in the assay with Escherichia coli [12], above 16 µg/mL; against Pseudomonas aeruginosa [13], 8 µg/mL (≈ 22.6 µM).
For the compound `Cc1c(N2CCCC(CO)C2)ccc2c(=O)c(C(=O)O)cn(C3CC3)c12` (stereo unspecified), the MIC is 0.5 µg/mL (≈ 1.4 µM) in the assay on Enterococcus faecalis [1]; 0.25 µg/mL (≈ 0.701 µM) in the assay with Enterococcus faecalis [2]; 0.5 µg/mL (≈ 1.4 µM) against Enterobacter cloacae; 0.25 µg/mL (≈ 0.701 µM) in the assay with Escherichia coli [3]; 0.125 µg/mL (≈ 0.351 µM) in the assay on Escherichia coli [4]; below 0.016 µg/mL in the assay with Haemophilus influenzae. The MIC was 0.06 µg/mL (≈ 0.168 µM) with Klebsiella pneumoniae; 4 µg/mL (≈ 11.2 µM) in the assay with Proteus mirabilis; 16 µg/mL (≈ 44.9 µM) against Pseudomonas aeruginosa [5]; 8 µg/mL (≈ 22.4 µM) in the assay on Proteus vulgaris; below 0.016 µg/mL in the assay with Staphylococcus aureus [6]; below 0.016 µg/mL in the assay with Staphylococcus aureus [7]. In addition, the MIC in the assay with Staphylococcus aureus [8] is below 0.016 µg/mL; against Staphylococcus aureus [9], 1 µg/mL (≈ 2.81 µM); in the assay on Streptococcus pneumoniae, 0.5 µg/mL (≈ 1.4 µM); against Streptococcus pyogenes, 0.5 µg/mL (≈ 1.4 µM); against Escherichia coli [12], 16 µg/mL (≈ 44.9 µM); against Pseudomonas aeruginosa [13], 4 µg/mL (≈ 11.2 µM).
With `Cc1c(N2CCNCC2)ccc2c(=O)c(C(=O)O)cn(C3CC3)c12.Cl`, the MIC with Enterococcus faecalis [1] stood at 2 µg/mL; in the assay with Enterococcus faecalis [2] it was 2 µg/mL; against Enterobacter cloacae, 0.26 µg/mL; against Escherichia coli [3] it was 0.03 µg/mL; in the assay on Escherichia coli [4], 0.03 µg/mL; against Haemophilus influenzae, 0.03 µg/mL. The MIC in the assay on Klebsiella pneumoniae was below 0.016 µg/mL; with Proteus mirabilis it was 0.25 µg/mL; in the assay with Pseudomonas aeruginosa [5], 2 µg/mL; against Proteus vulgaris, 2 µg/mL; in the assay with Staphylococcus aureus [6], 0.5 µg/mL; against Staphylococcus aureus [7], 0.5 µg/mL. Moreover, the MIC in the assay with Staphylococcus aureus [8] was 0.25 µg/mL; against Staphylococcus aureus [9] it was 16 µg/mL; in the assay with Streptococcus pneumoniae, 2 µg/mL; in the assay on Streptococcus pyogenes it was 2 µg/mL; with Escherichia coli [12], above 16 µg/mL; with Pseudomonas aeruginosa [13], 0.125 µg/mL.
As to `O=C(O)c1cn(C2CC2)c2cc(N3CCNCC3)c(F)cc2c1=O` [CIPROFLOXACIN], the MIC in the assay with Enterococcus faecalis [1] was 1 µg/mL (≈ 3.02 µM); with Enterococcus faecalis [2] it was 0.5 µg/mL (≈ 1.51 µM); in the assay on Escherichia coli [3] it was below 0.016 µg/mL; against Escherichia coli [4], below 0.016 µg/mL; with Haemophilus influenzae it was below 0.016 µg/mL; against Klebsiella pneumoniae, below 0.016 µg/mL. The MIC in the assay with Proteus mirabilis turned out to be 0.06 µg/mL (≈ 0.181 µM); with Pseudomonas aeruginosa [5], 1 µg/mL (≈ 3.02 µM); against Proteus vulgaris it was 0.5 µg/mL (≈ 1.51 µM); against Staphylococcus aureus [6], 0.5 µg/mL (≈ 1.51 µM); in the assay on Staphylococcus aureus [7], 1 µg/mL (≈ 3.02 µM); against Staphylococcus aureus [8] it was 0.25 µg/mL (≈ 0.754 µM). The MIC was above 16 µg/mL with Staphylococcus aureus [9]; 1 µg/mL (≈ 3.02 µM) with Streptococcus pneumoniae; 0.5 µg/mL (≈ 1.51 µM) in the assay on Streptococcus pyogenes; 0.917 µg/mL (≈ 2.77 µM) in assay [10]; 0.083 µg/mL (≈ 0.25 µM) in assay [11]; 0.06 µg/mL (≈ 0.181 µM) with Pseudomonas aeruginosa [13].
